According to US11667602B2, “Compounds and their use” (AstraZeneca AB, priority 2020, dated 2023):
pEC50: −log10 of the molar value.

Target: T1, human RXFP1 (Homo sapiens, UniProt Q9HBX9)
T1 sequence (Q9HBX9 1-757): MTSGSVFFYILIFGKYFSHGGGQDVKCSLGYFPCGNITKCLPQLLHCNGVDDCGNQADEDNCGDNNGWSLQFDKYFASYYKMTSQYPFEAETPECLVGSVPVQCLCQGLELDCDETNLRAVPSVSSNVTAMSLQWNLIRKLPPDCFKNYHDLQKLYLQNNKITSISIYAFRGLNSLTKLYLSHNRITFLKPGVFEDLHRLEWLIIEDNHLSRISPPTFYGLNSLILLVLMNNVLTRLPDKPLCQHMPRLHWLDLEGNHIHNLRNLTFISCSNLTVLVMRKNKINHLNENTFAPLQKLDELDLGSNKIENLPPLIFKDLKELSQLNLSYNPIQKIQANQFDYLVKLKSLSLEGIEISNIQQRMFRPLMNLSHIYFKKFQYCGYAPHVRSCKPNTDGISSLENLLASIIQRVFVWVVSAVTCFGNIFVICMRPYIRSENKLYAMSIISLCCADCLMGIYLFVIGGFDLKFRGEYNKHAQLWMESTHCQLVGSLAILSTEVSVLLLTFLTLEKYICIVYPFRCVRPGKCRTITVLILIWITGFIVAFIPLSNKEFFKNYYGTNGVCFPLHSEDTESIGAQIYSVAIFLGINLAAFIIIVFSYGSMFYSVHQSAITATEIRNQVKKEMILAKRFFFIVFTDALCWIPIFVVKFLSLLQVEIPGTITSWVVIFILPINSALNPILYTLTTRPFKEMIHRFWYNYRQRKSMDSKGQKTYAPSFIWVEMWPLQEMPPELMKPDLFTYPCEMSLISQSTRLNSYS
Assay: RXFP1 Hu cAMP (Test A)
Type: cell-based
Set-up: expressed in transfected cells; host or cells: Jump-In T-REx CHO-K1 cells (ThermoFisher), induced with 10 ng/ml doxycycline for 24 h
Settings: RXFP1 Hu cAMP; for pEC50: read-out: Test A EC50
Method in brief: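 Read-out is HTRF signal, inversely proportional to cAMP, converted to cAMP amount by standard curve. Stimulation occurred in inducible CHO-K1 cells expressing the human receptor with phosphodiesterases blocked by 0.5 mM IBMX.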

Row | Compound | Test A Sinf | pEC50
1 | COc1cc(C#N)c(O[C@H]2CC[C@@](C)(C(=O)O)CC2)cc1C(=O)Nc1cc(Cl)ccc1C(=O)NCC1(F)CCC1 [Example 160] | 125% | 6.80
2 | (1R,4s)-4-(2-fluoro-4-methoxy-5-(((1S*,2S*,5S*)-2-methoxy-5-((3-((trifluoromethyl)sulfonyl)phenyl)carbamoyl)cyclopentyl)carbamoyl)phenoxy)-1-methylcyclohexane-1-carboxylic acid [Example 527] | 101% | –
3 | COc1cc(F)c(-c2ccc(CCS(N)(=O)=O)cc2)cc1C(=O)N[C@H]1[C@H]2CC[C@H](C2)[C@H]1C(=O)Nc1cccc(S(=O)(=O)C(F)(F)F)c1 (single isomer, unassigned) [Example 327] | – | < 4.40
4 | COc1cc(C#N)c(O[C@H]2CC[C@@](C)(C(=O)O)CC2)cc1C(=O)N[C@@H]1[C@H]2CC[C@H](C2)[C@@H]1C(=O)N[C@@H](C)c1ccccc1 (racemic) [Example 140] | 95% | 7.08
5 | COc1cc(F)c(O[C@H]2CC[C@](CC#N)(C(=O)O)CC2)cc1C(=O)N[C@@H]1[C@H]2CC[C@H](C2)[C@@H]1C(=O)NCC1(C)CCC1 [Example 423, (1R,4r)-1-(Cyanomethyl)-4-(2-fluoro-4-methoxy-5-(((1S,2R,3S,4R)-3-(((1-methylcyclobutyl)methyl)carbamoyl)bicyclo[2.2.1]heptan-2-yl)carbamoyl)phenoxy)cyclohexane-1-carboxylic acid] | 89% | –
6 | COc1cc(F)c(OCc2cccc(C(=O)O)c2)cc1C(=O)N[C@H]1[C@@H](C(=O)Nc2cccc(S(=O)(=O)C(F)(F)F)c2)[C@@H]2C=C[C@H]1C2 (racemic) [Example 449] | 108% | 5.80
7 | COc1cc(F)c(-c2ccc(O)c(C(=O)O)c2)cc1C(=O)N[C@H]1[C@@H]2CC[C@@H](C2)[C@H]1C(=O)Nc1cccc(S(=O)(=O)C(F)(F)F)c1 (single isomer, unassigned) [Example 556] | 114% | 6.89
8 | COc1cc(C#N)c(O[C@H]2CC[C@@](C)(C(=O)O)CC2)cc1C(=O)Nc1cc(Cl)ccc1C(=O)NC(C)(C)C1CC1 [Example 165] | 111% | 7.92
9 | COc1cc(F)c(O[C@@H]2C[C@@H]3[C@H](C2)[C@H]3C(=O)O)cc1C(=O)N[C@@H]1[C@H]2CC[C@H](C2)[C@@H]1C(=O)NCC1(C)CCC1 (racemic) [Example 425, (1RS,3SR,5SR,6RS)-3-(2-Fluoro-4-methoxy-5-(((1S,2R,3S,4R)-3-(((1-methylcyclobutyl)methyl)carbamoyl)bicyclo[2.2.1]heptan-2-yl)carbamoyl)phenoxy)bicyclo[3.1.0]hexane-6-carboxylic acid] | 78% | –
10 | COc1cc(F)c(O[C@H]2CC[C@@](C)(C(=O)O)CC2)cc1C(=O)N[C@@H]1[C@H]2CC[C@H](C2)[C@@H]1C(=O)NCC(C)(C)OC [Example 610] | 105% | –
11 | COc1cc(F)c(-c2ccc(C(=O)O)cc2)cc1C(=O)N[C@H]1[C@@H](C(=O)Nc2cc(F)cc(S(F)(F)(F)(F)F)c2)[C@@H]2C=C[C@H]1C2 (racemic) [Example 298] | 82% | 6.04
12 | COc1cc(F)c(-c2ccc(O)c(C(=O)O)c2)cc1C(=O)N[C@H]1[C@@H]2CC[C@@H](C2)[C@H]1C(=O)Nc1cccc(S(=O)(=O)C(F)(F)F)c1 (single isomer, unassigned) [Example 557] | 68% | –
13 | COc1cc(C#N)c(O[C@H]2CC[C@@](C)(C(=O)O)CC2)cc1C(=O)N[C@@H]1C2CCC(CC2)[C@@H]1C(=O)NCC1(C)CCC1 (racemic) [Example 468, (1R,4s)-4-(2-Cyano-4-methoxy-5-(((2SR,3RS)-3-(((1-methylcyclobutyl)methyl)carbamoyl)bicyclo[2.2.2]octan-2-yl)carbamoyl)phenoxy)-1-methylcyclohexane-1-carboxylic acid] | 93% | 8.39
14 | COc1cc(F)c(O[C@H]2CC[C@@](C)(C(=O)O)CC2)cc1C(=O)N[C@@H]1[C@H]2CC[C@H](C2)[C@@H]1C(=O)NCCC(F)(F)F [Example 596] | 105% | –
15 | COc1cc(F)c(O[C@H]2CC[C@@](C)(C(=O)O)CC2)cc1C(=O)NC1CC(OC)CC1C(=O)NCC(C)(C)C (single isomer, unassigned) [Example 546, (1R,4s)-4-(2-Fluoro-4-methoxy-5-(((1S*,2R*,4R*)-4-methoxy-2-(neopentylcarbamoyl)cyclopentyl)carbamoyl)phenoxy)-1-methylcyclohexane-1-carboxylic acid] | – | < 4.40
16 | COCC1(CNC(=O)[C@H]2[C@@H]3CC[C@@H](C3)[C@H]2NC(=O)c2cc(O[C@H]3CC[C@@](C)(C(=O)O)CC3)c(F)cc2OC)CCC1 [Example 594] | 96% | 6.28
17 | O=C(O)c1ccc(-c2cc(C(=O)N[C@H]3[C@@H](C(=O)Nc4cccc(S(=O)(=O)C(F)(F)F)c4)[C@@H]4C=C[C@H]3C4)c(F)cc2F)cc1 (racemic) [Example 306, rac-2′,4′-Difluoro-5′-(((1R,2R,3S,4S)-3-((3-((trifluoromethyl)sulfonyl)phenyl)carbamoyl)bicyclo[2.2.1]hept-5-en-2-yl)carbamoyl)-[1,1′-biphenyl]-4-carboxylic acid] | 73% | –
18 | COc1cc(F)c(O[C@H]2CC[C@@](F)(C(=O)O)CC2)cc1C(=O)N[C@@H]1[C@H]2CC[C@H](C2)[C@@H]1C(=O)NCC1(C)CCC1 [Example 415] | 103% | –
19 | COc1ccc(-c2cc(C(=O)N[C@H]3[C@@H](C(=O)Nc4cccc(S(=O)(=O)C(F)(F)F)c4)[C@@H]4C=C[C@H]3C4)c(OC)cc2F)cc1C(=O)O (racemic) [Example 230] | 116% | 6.00
20 | COc1cc(F)c(O[C@H]2CC[C@](C)(C(=O)O)CC2)cc1C(=O)NC1[C@H]2CC[C@H](C2)[C@@H]1C(=O)Nc1cccc(S(=O)(=O)C(F)(F)F)c1 (stereo partly drawn) [Example 445] | 101% | –
21 | COc1cc(F)c(-c2ccc(C(=O)O)c(F)c2)cc1C(=O)N[C@H]1[C@@H](C(=O)Nc2cccc(S(=O)(=O)C(F)(F)F)c2)[C@@H]2C=C[C@H]1C2 (racemic) [Example 232] | 108% | –
22 | COc1cc(F)c(-c2ccc(C(N)(CO)CO)cc2)cc1C(=O)N[C@@H]1[C@H]2CC[C@H](C2)[C@@H]1C(=O)Nc1cccc(S(=O)(=O)C(F)(F)F)c1 [Example 265, (1R,2S,3R,4S)-3-(4′-(2-Amino-1,3-dihydroxypropan-2-yl)-6-fluoro-4-methoxy-[1,1′-biphenyl]-3-carboxamido)-N-(3-((trifluoromethyl)sulfonyl)phenyl)bicyclo[2.2.1]heptane-2-carboxamide] | 78% | –
23 | COc1cc(F)c(O[C@H]2CC[C@@](O)(C(=O)O)CC2)cc1C(=O)N[C@@H]1[C@H]2CC[C@H](C2)[C@@H]1C(=O)NCC1(C)CCC1 [Example 507, (1R,4r)-4-(2-Fluoro-4-methoxy-5-(((1S,2R,3S,4R)-3-(((1-methylcyclobutyl)methyl)carbamoyl)bicyclo[2.2.1]heptan-2-yl)carbamoyl)phenoxy)-1-hydroxycyclohexane-1-carboxylic acid] | 118% | 6.27
24 | COc1cc(C#N)c(O[C@H]2CC[C@@](C)(C(=O)O)CC2)cc1C(=O)Nc1cc(Cl)ccc1C(=O)NCC1CCCCCC1 [Example 157, (1s,4s)-4-(5-((5-Chloro-2-((cycloheptylmethyl)carbamoyl)phenyl)carbamoyl)-2-cyano-4-methoxyphenoxy)-1-methylcyclohexane-1-carboxylic acid] | 118% | 7.06
25 | COc1cc(F)c(O[C@H]2CC[C@@](C)(C(=O)O)CC2)cc1C(=O)N[C@@H]1[C@H]2CC[C@H](C2)[C@@H]1C(=O)NC1CC(F)(F)C1 [Example 619] | 103% | 6.41
26 | COc1cc(F)c(O[C@H]2CC[C@@](C)(C(=O)O)CC2)cc1C(=O)N[C@@H]1[C@H]2CC[C@H](C2)[C@@H]1C(=O)NC1CCCC1(C)C (relative stereo) [Example 503, (1S,4s)-4-(5-(((1S,2R,3S,4R)-3-(((R*)-2,2-Dimethylcyclopentyl)carbamoyl)bicyclo[2.2.1]heptan-2-yl)carbamoyl)-2-fluoro-4-methoxyphenoxy)-1-methylcyclohexane-1-carboxylic acid] | 102% | 7.22
